{"source": "patent US20210062263A1", "about": "“A CLINICAL […]” (priority 2016, published 2021)", "system": "follistatin", "assay": "Serum follistatin levels (RIA) in wounded male mice", "assay_type": "in vivo", "experimental": "Implants were prepared by cutting medical grade Silastic (polydimethylsiloxane) tubing (1.5 mm inner diameter, 2.3 mm outer diameter, Aunet Pty Ltd, WA, Australia) to the desired length (1 cm long) and sealing one end with Multi-Purpose Sealant (Dow Corning RTV Sealant). After 24 hours each tube was packed with either crystalline testosterone (Sigma #T-1500) or left empty (vehicle implant). The open end was then sealed and implants were allowed to dry for at least 24 hours prior to surgical implantation. The implant size was considered to be the length of tubing containing testosterone. Prior to subcutaneous insertion, implants were sterilized in absolute ethanol for 10 minutes which also removed any androgen adhering to its external surface. Each testosterone or vehicle implant was inserted subcutaneously via a 5-mm nape incision in intact and castrated male mice three weeks before the wound healing experiments and the incision site was closed with 5/0 sutures.\nUnder anesthesia, the dorsal flanks of each 9 weeks old mouse (n=6/group) were carefully shaved and cleansed with 70% v/v ethanol. To create wounds, full-thickness, parasagittal linear incisions (1 cm long) were made through the skin and underlying the panniculus carnosus muscle on each flank and each wound was closed using two 5/0 silk sutures placed 3 mm from each end of the wound. Post operatively, all animals received analgesia to minimize pain, were allowed to recover on a heated pad and then housed in groups of four animals per cage. Incisions were examined and assessed on days 3, 5, 7 and post-wounding.\nBlood samples were collected between 10:00 and 10:30 am by cardiac puncture at different time points (0d, 3d, 5d, 7d or 14d) according to the experimental protocol. The samples were allowed to coagulate for 30 minutes then centrifuged at 10,000 g for 10 minutes to collect serum which was stored at −20° C. until assayed.\nSerum and skin follistatin levels were measured by RIA using human recombinant follistatin 288 as standard and as tracer following labeling with I^125 (O'Conner et al. (1999) Hum Reprod 14(3):827-832). The assay sensitivity for serum follistatin was 1.52 ng/ml, and the intra-assay variation was 5.4-5.7%."}
{"smiles": "C[C@]12CC[C@H]3[C@@H](CCC4=CC(=O)CC[C@@]43C)[C@@H]1CC[C@@H]2O", "note": "[testosterone]", "values": [{"measurement": "Serum Follistatin", "setting": "Castrated + T males, 0 d", "value": "4.3 ± 0.5", "unit": "ng/mL"}, {"measurement": "Serum Follistatin", "setting": "Castrated + T males, 3 d", "value": "4.1 ± 0.3", "unit": "ng/mL"}, {"measurement": "Serum Follistatin", "setting": "Castrated + T males, 5 d", "value": "3.9 ± 0.2", "unit": "ng/mL"}, {"measurement": "Serum Follistatin", "setting": "Castrated + T males, 7 d", "value": "4.5 ± 0.3", "unit": "ng/mL"}, {"measurement": "Serum Follistatin", "setting": "Castrated + T males, 14 d", "value": "4.5 ± 0.5", "unit": "ng/mL"}, {"measurement": "Serum Follistatin", "setting": "Intact + T males, 0 d", "value": "3.6 ± 0.03", "unit": "ng/mL"}, {"measurement": "Serum Follistatin", "setting": "Intact + T males, 3 d", "value": "3.8 ± 0.3", "unit": "ng/mL"}, {"measurement": "Serum Follistatin", "setting": "Intact + T males, 5 d", "value": "3.8 ± 0.1", "unit": "ng/mL"}, {"measurement": "Serum Follistatin", "setting": "Intact + T males, 7 d", "value": "3.8 ± 0.4", "unit": "ng/mL"}, {"measurement": "Serum Follistatin", "setting": "Intact + T males, 14 d", "value": "3.6 ± 0.2", "unit": "ng/mL"}]}
